# Data taken from PMC11111408, “Concurrent inhibition of oncogenic and wild-type RAS-GTP for cancer therapy” (Nature, 2024).
# Several values for one entry are separate records, joined by “and”; a condition that tells them apart may be missing. Equal values may be shown once.
# Tests used:
# [1] = tested on: AsPC-1 and NCI-H441 cells; assay: pERK (MSD) and proliferation (CTG) in AsPC-1 and NCI-H441 cells, CYPA inhibitor co-treatment or PPIA KO; assay type: cell-based, human;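 for Proliferation inhibition with CYPA inhibitor competition: luminescence as % of CYPA inhibitor-only control with 3 mM sanglifehrin A competitor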
# GMPPNP–KRAS = biological target: T1, GMPPNP–KRAS (Homo sapiens, UniProt P01116, G12C); assay: SPR binding of RMC-7977 to KRAS in the absence of CYPA; conditions: compound alone without CYPA
# T1 construct: His6-TEV (N); made in house; host or cells: E. coli BL21(DE3)
# RAS-less MEFs = assay: Western blots of isogenic RAS-less MEF cells expressing KRAS variants or BRAF(V600E); assay type: cell-based, mouse; conditions: 24 h, western blot
# GDP-bound KRAS(G12C) = biological target: T2, GDP-bound KRAS(G12C) (Homo sapiens, UniProt P01116, G12C); assay: SPR binding of RMC-7977–CYPA binary complex to GDP-bound KRAS; conditions: in vitro
# T2 construct: His6-TEV (N); made in house; host or cells: E. coli BL21(DE3)
# [2] = tested on: NCI-H441, HPAC and SW620 CDX models; assay: CDX models, RMC-7977 versus SHP2 and MEK inhibitors; conditions: three KRAS^G12X models; RMC-7977 10 mg kg^−1 once daily, RMC-4550 20 mg kg^−1 every 2 days, cobimetinib 2.5 mg kg^−1 once daily, alone or in combination
# Procedure: Data are mean ± s.e.m. of 3–18 mice per group.
# Female BALB/c nude mice, NOD SCID and NSG mice 6-8 weeks old from Beijing Vital River/VR Laboratory Animal Co., LTD, Beijing AniKeeper Biotech Co., Ltd., Shanghai Sino-British SIPPR/BK Laboratory Animal Co., LTD and The Jackson Laboratory were used. Animals were housed in polycarbonate cages, in an environmentally monitored, well ventilated room maintained at a constant temperature of 20-26°C and relative humidity of 40-80%. Fluorescent lighting provided illumination approximately 12 hours per day. Each mouse was inoculated at the right flank with tumor cells (2x10^6-1x10^7) in 100-200 µL of media/PBS supplemented with Matrigel (1:1). Treatments were started when the average tumor size reached 100-250 mm^3. […] Mice on studies were weighed and tumor measurements collected twice weekly. Human primary cancer xenograft models were generated using fresh cancer tumor fragments obtained from hospitals with informed consent from the patients in accordance with protocols approved by the Hospital Institutional Ethical Committee (IEC). Tumor fragments were serial-passaged in BABL/c nude mice and then cryopreserved. Cryopreserved tumors were recovered by implantation in BALB/c nude mice and further serial passaged and frozen for study implantation use. Recovered tumor fragments of about 15-30 mm3 in size from each model were implanted into right flanks of Balb/c nude mice. Treatment started when average tumor volume reached 100-250mm^3. For efficacy study, Animals were assigned to study groups using stratified randomization based upon their tumor volumes (n=3-10/group). […] Animals were treated for 28 days (or up to 110 for selected models) or an earlier time if tumor burden reached humane endpoint. Mean ± s.e.m was plotted in the waterfall plots. The dashed line on waterfall plot indicates a 10% reduction in tumor volume from baseline. […] Body weights were collected twice a week during the study. For single-dose pharmacokinetic/pharmacodynamics (PK/PD) study, mice were randomized into treatment groups when mean tumor volume reached 400-600 mm^3.
# KRAS–SOS1 = biological target: T3, KRAS–SOS1 (Homo sapiens, UniProt P01116+); assay: Cellular nano-BRET, catalytic domain of SOS1 binding to KRAS; assay type: cell-based; conditions: in the presence of CYPA, single replicates;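 note: U2OS cells expressing partner proteins fused at the N-terminus to nanoluciferase or HaloTag, nano-BRET signal read after inhibitor exposure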
# T3 construct: expressed in transfected cells; host or cells: U2OS
# [3] = tested on: Capan-1, SW620, AsPC-1, HPAC, NCI-H358, PSN1, HUPT3, HCT 116, Hs 766T, SK-MEL-30, KU1919, NCI-H1975, A375; assay: pERK (AlphaLISA) in human cancer cell lines; assay type: cell-based
# Excerpt: Data points show biological duplicates normalized to vehicle control. […] Data points show biological duplicates normalized to vehicle control from 1 of 2–26 independent experiments. Source Data
compound,measurement,setting,value
CCn1c(-c2cc(N3CCN(C4CC4)CC3)cnc2[C@H](C)OC)c2c3cc(ccc31)-c1csc(n1)C[C@H](NC(=O)[C@H]1[C@@H]3COC[C@@H]31)C(=O)N1CCC[C@H](N1)C(=O)OCC(C)(C)C2 [RMC-7977],activity at 0.1 µM,"[1]; Homo sapiens, NCI-H441, read-out: Proliferation inhibition in PPIA KO cells treated with RMC-7977, NCI-H441, 100.00 nM",23.6%
same,activity at 0.3 µM,"[1]; Homo sapiens, NCI-H441, read-out: Proliferation inhibition in PPIA KO cells treated with RMC-7977, NCI-H441, 300.00 nM",27.5%
same,activity at 5.08 pM,"[1]; Homo sapiens, NCI-H441, read-out: Proliferation inhibition in PPIA KO cells treated with RMC-7977, NCI-H441, […]",120%
same,activity at 0.00041 µM,"[1]; Homo sapiens, NCI-H441, read-out: pERK inhibition in PPIA KO cells treated with RMC-7977, NCI-H441, 0.41 nM",88.1%
same,activity at 0.0037 µM,"[1]; Homo sapiens, NCI-H441, read-out: pERK inhibition in PPIA KO cells treated with RMC-7977, NCI-H441, 3.70 nM",11.8%
same,Proliferation inhibition with CYPA inhibitor competition,"[1]; NCI-H441, RMC-7977 0.0152 nM",112.235 and 120.202
same,pERK signal remaining (% of control) with CYPA inhibitor competition,"[1]; NCI-H441, RMC-7977 0.0152 nM",101.09 and 141.742 and 99.9715 and 108.212
same,Proliferation inhibition with CYPA inhibitor competition,"[1]; NCI-H441, RMC-7977 0.0457 nM",127.307 and 133.477
same,pERK signal remaining (% of control) with CYPA inhibitor competition,"[1]; NCI-H441, RMC-7977 0.0457 nM",116.541 and 138.344 and 94.9151 and 96.9475
same,Proliferation inhibition with CYPA inhibitor competition,"[1]; NCI-H441, RMC-7977 0.41 nM",83.6742 and 95.5735 and 83.4726 and 112.168
same,Proliferation inhibition with CYPA inhibitor competition,"[1]; NCI-H441, RMC-7977 3.70 nM",34.5277 and 37.2472 and 40.6838 and 40.7762
same,pERK signal remaining (% of control) with CYPA inhibitor competition,"[1]; NCI-H441, RMC-7977 3.70 nM",11.9888 and 19.4005 and 10.392 and 10.3218
same,Proliferation inhibition with CYPA inhibitor competition,"[1]; NCI-H441, RMC-7977 11.11 nM",26.6151 and 22.9193 and 35.0508 and 37.4802
same,Proliferation inhibition with CYPA inhibitor competition,"[1]; NCI-H441, RMC-7977 33.33 nM",29.0347 and 22.8651 and 29.7232 and 34.4423
same,Proliferation inhibition with CYPA inhibitor competition,"[1]; NCI-H441, RMC-7977 100.00 nM",28.8791 and 27.2758 and 27.7958 and 31.2386
same,Proliferation inhibition with CYPA inhibitor competition,"[1]; NCI-H441, RMC-7977 300.00 nM",32.3111 and 29.0775 and 27.5922 and 25.4872
same,binding to GMPPNP–KRAS,GMPPNP–KRAS,neither RMC-7977 nor CYPA alone exhibited any measurable binding
same,pERK suppression in RAS-less MEFs,RAS-less MEFs,"suppressed pERK in all KRAS-expressing cells, but not in BRAF(V600E)-expressing RAS-less MEFs"
same,binding of RMC-7977–CYPA binary complex to GDP-bound KRAS(G12C),GDP-bound KRAS(G12C),No binding was observed
same,anti-tumour activity,[2],deep regressions in all three models
same,Cellular nano-BRET of SOS1 (catalytic domain) binding to KRAS WT,KRAS–SOS1; RMC-7977 0.152 nM,8.563 and 8.127 and 7.755 and 7.611 and 8.1239 and 8.058
same,Cellular nano-BRET of SOS1 (catalytic domain) binding to KRAS WT,KRAS–SOS1; RMC-7977 0.457 nM,8.149 and 7.736 and 7.651 and 7.24 and 7.671 and 7.508
same,Cellular nano-BRET of SOS1 (catalytic domain) binding to KRAS WT,KRAS–SOS1; RMC-7977 1.372 nM,7.907 and 7.747 and 7.493 and 7.384 and 7.007 and 7.17
same,Cellular nano-BRET of SOS1 (catalytic domain) binding to KRAS WT,KRAS–SOS1; RMC-7977 4.115 nM,6.922 and 7.229 and 6.471 and 6.374 and 6.52 and 6.661
same,Cellular nano-BRET of SOS1 (catalytic domain) binding to KRAS WT,KRAS–SOS1; RMC-7977 12.346 nM,6.508 and 6.709 and 6.01 and 5.988 and 6.2252 and 6.045
same,Cellular nano-BRET of SOS1 (catalytic domain) binding to KRAS WT,KRAS–SOS1; RMC-7977 37.037 nM,7.064 and 6.964 and 6.2728 and 5.9257 and 6.205 and 6.027
same,Cellular nano-BRET of SOS1 (catalytic domain) binding to KRAS WT,KRAS–SOS1; RMC-7977 111.111 nM,6.712 and 6.771 and 6.171 and 6.63 and 5.929 and 6.341
same,Cellular nano-BRET of SOS1 (catalytic domain) binding to KRAS WT,KRAS–SOS1; RMC-7977 333.333 nM,6.383 and 7.187 and 5.742 and 6.572 and 6.198 and 6.656
same,Cellular nano-BRET of SOS1 (catalytic domain) binding to KRAS WT,KRAS–SOS1; RMC-7977 1000.000 nM,6.907 and 6.939 and 5.652 and 5.948 and 6.113 and 6.236
same,pERK of RAS mutant and RAS WT cell lines treated with RMC-7977,"[3]; CAPAN1, RMC-7977 1.52 nM",19.123 and 19.8052
same,pERK of RAS mutant and RAS WT cell lines treated with RMC-7977,"[3]; CAPAN1, RMC-7977 4.57 nM",1.955 and 2.566
same,pERK of RAS mutant and RAS WT cell lines treated with RMC-7977,"[3]; HUPT3, RMC-7977 0.05 nM",94.4091 and 94.8337 and 88.9674 and 91.9384 and 90.4786 and 91.137
same,pERK of RAS mutant and RAS WT cell lines treated with RMC-7977,"[3]; HUPT3, RMC-7977 0.46 nM",54.494 and 62.3496 and 67.5543 and 72.6449 and 54.2163 and 63.5857
same,pERK (normalised response),"[3]; NCIH358, RMC-7977 0.05 nM",95.3351 and 101.687
same,pERK (normalised response),"[3]; NCIH358, RMC-7977 0.46 nM",100.659 and 104.04
same,pERK (normalised response),"[3]; NCIH358, RMC-7977 4.12 nM",12.3735 and 16.2725
same,pERK (normalised response),"[3]; PSN1, RMC-7977 0.05 nM",88.9166 and 100.089
same,pERK (normalised response),"[3]; RMC-7977 123.46 nM, replicates",-0.725 and -0.593 and -0.5397 and -0.3753 and -0.4309 and -0.2687 and -0.4302 and -0.02426 and 0.06955 and 0.1569 and -0.4286 and -0.3396 and -0.5772 and -0.5479 and -0.6628 and -0.5005 and -0.5749 and -0.2908
same,pERK (normalised response),"[3]; RMC-7977 370.39 nM, replicates",-0.7644 and -0.7111 and -0.5907 and -0.5768 and -0.4216 and -0.3892 and -0.6033 and -0.5758 and -0.3364 and 0.5402 and -0.5111 and -0.3801 and -0.726 and -0.7102 and -0.7981 and -0.753 and -0.6335 and -0.6222
same,pERK (normalised response),"[3]; RMC-7977 1111.14 nM, replicates",-0.8316 and -0.7436 and -0.6671 and -0.6486 and -0.6046 and -0.6033 and -0.5758 and -0.3138 and -0.0744 and -0.5014 and -0.4707 and -0.7846 and -0.6967 and -0.78 and -0.7169 (2×) and -0.6921
same,pERK (normalised response),"[3]; RMC-7977 3333.41 nM, replicates",-0.871 and -0.8455 and -0.7297 and -0.8432 and -0.7667 and -0.6405 and -0.6259 and -0.2555 and 0.2652 and -0.5936 and -0.3995 and -0.7395 and -0.6651 and -0.762 and -0.5906 and -0.7169 and -0.656
same,pERK (normalised response),"[3]; RMC-7977 10000.00 nM, replicates",-0.9243 and 0.3336 and -0.8571 and 0.183 and -0.9196 and -0.05096 and -0.6324 and -0.02426 and -0.4949 and 0.5774 and -0.5725 and 0.8637 and -0.8004 and 0.4058 and -0.7439 and 0.02254 and -0.7755 and 0.9604
